Test results published in ChEMBL document CHEMBL5226385, “The Antiangiogenic and Antitumor Effects of Scoparasin B in Non-Small-Cell Lung Cancer” (J Nat Prod, 2023).
Calls of active or inactive are those of the source. The calls are words filed in the database; no cut-off is given here.

Legend:
[1] = Toxicity against BALB/c nude mouse xenografted with human NCI-H1299 cells assessed as morphological changes in kidneys at 0.75 to 1.5 mg/kg, ip administered every other day for 20 days by Hematoxylin and eosin staining based inverted microscopic analysis; assay type: organism-based; conditions: in vivo, 480 h, dose 0.75-1.5 mg/kg, time 20 day
[2] = Toxicity against BALB/c nude mouse xenografted with human NCI-H1299 cells assessed as morphological changes in spleen at 0.75 to 1.5 mg/kg, ip administered every other day for 20 days by Hematoxylin and eosin staining based inverted microscopic analysis; assay type: organism-based; conditions: in vivo, 480 h, dose 0.75-1.5 mg/kg, time 20 day
HUVEC = assay: Downregulation of VEGFR2 protein expression in human HUVEC cells at 5 to 15 nM incubated for 36 hrs by western blot analysis; assay type: functional, cell-based; conditions: dose 5-15 nM

For `COc1ccc(C[C@@H]2NC(=O)[C@@]34OC(=O)O/C=C/[C@@](C)(O)C(=O)[C@@H](C)C/C=C/[C@H]3[C@H](O)[C@](C)(O)[C@@H](C)[C@@H]24)cc1` [SCOPARASIN B], the Activity [1] was “Non-Toxic”, the Activity [2] was “Non-Toxic” and the inhibition (HUVEC) was “inactive”.
